Experimental data from paper PMC10379611 (International Journal of Molecular Sciences, 2023).

Key:
[1] = target: T1, CNT2 (Homo sapiens, UniProt O43868); assay: CNT2-mediated uridine uptake in CNT2-MDCKII cells; type: cell-based
T1 construct: expressed in transfected cells; host or cells: MDCKII (lentiviral transduction)
T1 sequence (O43868 1-658): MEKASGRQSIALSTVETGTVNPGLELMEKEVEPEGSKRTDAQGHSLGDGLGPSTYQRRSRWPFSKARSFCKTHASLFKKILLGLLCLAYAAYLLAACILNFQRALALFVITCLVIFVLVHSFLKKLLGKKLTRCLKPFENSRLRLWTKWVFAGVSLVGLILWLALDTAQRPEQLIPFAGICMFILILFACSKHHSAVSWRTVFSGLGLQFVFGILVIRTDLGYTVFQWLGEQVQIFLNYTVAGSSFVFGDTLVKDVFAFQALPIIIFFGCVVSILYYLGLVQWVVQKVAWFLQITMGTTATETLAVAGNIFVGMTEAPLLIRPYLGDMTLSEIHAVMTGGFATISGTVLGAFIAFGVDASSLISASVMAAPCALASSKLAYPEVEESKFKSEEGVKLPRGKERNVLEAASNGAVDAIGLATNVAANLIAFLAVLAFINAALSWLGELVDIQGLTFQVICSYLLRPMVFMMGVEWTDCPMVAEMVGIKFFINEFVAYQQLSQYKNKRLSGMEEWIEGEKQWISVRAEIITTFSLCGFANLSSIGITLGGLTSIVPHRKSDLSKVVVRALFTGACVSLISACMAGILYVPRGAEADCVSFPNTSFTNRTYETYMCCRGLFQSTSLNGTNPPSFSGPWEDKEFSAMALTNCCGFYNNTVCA
Protocol: ENT and CNT transporter interactions were investigated in transporter-overexpressing cell lines. Madin-Darby Canine Kidney II (MDCKII) cell lines overexpressing the human uptake transporters CNT1, CNT2, ENT1, and ENT2 were generated via lentiviral transduction. Cell cultures were maintained in Dulbecco’s modified Eagle’s medium (DMEM) and 4500 mg/L of glucose supplemented with GlutaMax^TM, 10% v/v fetal bovine serum (FBS), 100 units/mL penicillin, and 100 µg/mL streptomycin (all from Gibco/ThermoFisher, Waltham, MA, USA) at 37 °C in 5% CO2 at 95% humidity. For uptake inhibition assays, transporter-expressing cells and mock-transduced control cells were seeded on 96-well tissue culture plates at a density of 1 × 10^5 cells/well. Twenty-four hours after seeding, cells were rinsed twice with Krebs-Henseleit buffer (KH buffer, pH 7.4) and then preincubated for 30 min with solutions containing serial dilutions of the test compounds in KH at room temperature. Following preincubation, the solutions were removed, the cells were rinsed twice with KH buffer, and coincubation was started with a suitable radiolabeled substrate and the diluted series of test compounds. Assay conditions were as follows: 1 µM uridine (traced with 0.1 µCi ^3H-Uridine/well), 30 s (CNT1), and 1 min (CNT2, ENT1) incubations; 1 µM adenosine (traced with 0.1 µCi ^3H-Adenosine/well) and 2 min (ENT2) incubation. All experiments were conducted at room temperature. […] To determine the amounts of accumulated radiolabeled substrates, cell lysates mixed with a liquid scintillation cocktail were measured with a MicroBeta2 microplate counter (PerkinElmer, Singapore).
(§1) Transporter-specific accumulation of the probe substrate was calculated using the following formula: ACCSpec = ACCTRP − ACCMock, where ACCTRP is the accumulation of the probe in transporter-expressing cells and ACCMock is the accumulation of the probe in control cells. Relative transporter-specific accumulation values were calculated as percentages of the control value (with vehicle only).

[2] = target: T2, CNT1 (Homo sapiens, UniProt O00337); assay: CNT1-mediated uridine uptake in CNT1-MDCKII cells; type: cell-based; conditions: for IC50: MDCKII cells, 1 µM uridine
T2 construct: expressed in transfected cells; host or cells: MDCKII (lentiviral transduction)
T2 sequence (O00337 1-649): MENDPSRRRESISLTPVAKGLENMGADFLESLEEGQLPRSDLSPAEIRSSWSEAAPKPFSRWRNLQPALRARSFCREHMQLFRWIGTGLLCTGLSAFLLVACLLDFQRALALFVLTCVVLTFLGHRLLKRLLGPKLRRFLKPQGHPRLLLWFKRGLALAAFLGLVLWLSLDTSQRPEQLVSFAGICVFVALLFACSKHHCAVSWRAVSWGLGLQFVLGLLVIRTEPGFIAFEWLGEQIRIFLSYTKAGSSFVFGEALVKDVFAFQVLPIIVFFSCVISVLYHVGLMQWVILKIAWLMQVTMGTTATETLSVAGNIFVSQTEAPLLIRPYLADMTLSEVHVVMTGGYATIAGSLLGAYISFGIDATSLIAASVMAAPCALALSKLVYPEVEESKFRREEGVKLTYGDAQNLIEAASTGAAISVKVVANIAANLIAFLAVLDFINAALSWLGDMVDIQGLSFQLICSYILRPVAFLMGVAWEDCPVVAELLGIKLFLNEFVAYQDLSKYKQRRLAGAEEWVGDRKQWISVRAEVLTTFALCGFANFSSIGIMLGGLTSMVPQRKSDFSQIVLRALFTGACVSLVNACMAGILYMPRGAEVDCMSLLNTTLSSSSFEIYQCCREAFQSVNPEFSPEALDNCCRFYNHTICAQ
Protocol: ENT and CNT transporter interactions were investigated in transporter-overexpressing cell lines. Madin-Darby Canine Kidney II (MDCKII) cell lines overexpressing the human uptake transporters CNT1, CNT2, ENT1, and ENT2 were generated via lentiviral transduction. Cell cultures were maintained in Dulbecco’s modified Eagle’s medium (DMEM) and 4500 mg/L of glucose supplemented with GlutaMax^TM, 10% v/v fetal bovine serum (FBS), 100 units/mL penicillin, and 100 µg/mL streptomycin (all from Gibco/ThermoFisher, Waltham, MA, USA) at 37 °C in 5% CO2 at 95% humidity. For uptake inhibition assays, transporter-expressing cells and mock-transduced control cells were seeded on 96-well tissue culture plates at a density of 1 × 10^5 cells/well. Twenty-four hours after seeding, cells were rinsed twice with Krebs-Henseleit buffer (KH buffer, pH 7.4) and then preincubated for 30 min with solutions containing serial dilutions of the test compounds in KH at room temperature. Following preincubation, the solutions were removed, the cells were rinsed twice with KH buffer, and coincubation was started with a suitable radiolabeled substrate and the diluted series of test compounds. Assay conditions were as follows: 1 µM uridine (traced with 0.1 µCi ^3H-Uridine/well), 30 s (CNT1), and 1 min (CNT2, ENT1) incubations; 1 µM adenosine (traced with 0.1 µCi ^3H-Adenosine/well) and 2 min (ENT2) incubation. All experiments were conducted at room temperature. […] Uptake was terminated by rinsing twice with ice-cold KH buffer, and cells were lysed with 0.1 M NaOH. To determine the amounts of accumulated radiolabeled substrates, cell lysates mixed with a liquid scintillation cocktail were measured with a MicroBeta2 microplate counter (PerkinElmer, Singapore).
as §1

O=c1nc(NO)ccn1[C@@H]1O[C@H](CO)[C@@H](O)[C@H]1O [EIDD-1931]
inhibition of CNT2-mediated uridine uptake [1]: strong inhibition
IC50 ([1]; 1 µM uridine): 10.2 µM
IC50 [2]: 18.8 µM
inhibition of CNT1-mediated uridine uptake ([2]; at 200 μM): approximately 80%

CC(C)C(=O)OC[C@H]1O[C@@H](n2ccc(NO)nc2=O)[C@H](O)[C@@H]1O [EIDD-2801, Molnupiravir]
inhibition of CNT2-mediated uridine uptake [1]: less potently inhibited
IC50 [2]: 84.9 µM
inhibition at 200 µM ([2]; read-out: inhibition of CNT1-mediated uridine uptake): ~80%
